Where two headings read alike, the source gives them in different places.
How the values were obtained:
IL-6 = IL-6 ELISA in HIVIL (iKCs co-cultured with iHeps, LPS, 48 hr); type: cell-based, human; conditions: HIVIL
IL-10 = IL-10 ELISA in HIVIL (iKCs co-cultured with iHeps, LPS, 48 hr); type: cell-based, human; conditions: result in words
Text: Human iPSC cell line iPS (IMR90)-4 was purchased from WiCell Research Institute (Madison, WI), and maintained with a feeder-free method according to the instruction from […] Technologies (Vancouver, BC, Canada). The protocol of differentiation towards iKCs and iHeps as described previously with slight modification ([Tasnim et al., 2019]; [Cai et al., 2012]), respectively. […] More details are provided in Supplementary Methods. After differentiation, iKCs was harvested using 0.05 % trypsin-EDTA (Gibco, Waltham, Massachusetts, USA), while iHeps were dissociated with TrypLE^TM (Gibco). iHep suspension was further filtered through a 40 µm cell strainer to remove extracellular matrix clumps. Cell suspension was centrifuged at 1000 rpm for 5 min. For co-culture set up, tissue culture plates were coated with Rat tail collagen I (Gibco) diluted 100-fold in 0.02 N acetic acid, and incubated at 37 °C for 1 h and washed 3 times with PBS. […]
Enzyme-linked immunosorbent assay (ELISA) for measurement of cytokines: Interleukin-6 (IL-6), interleukin-10 (IL-10) and tumor necrosis factor alpha (TNFα) levels in the media were measured using the corresponding human-based ELISA kits (Abcam, Cambridge, United Kingdom) according to manufacturer’s instructions. […]

TNFα = TNFα ELISA in HIVIL (iKCs co-cultured with iHeps, LPS, 48 hr); type: cell-based, human; conditions: low dose 3.125 μM and 6.25 μM
Text: Human iPSC cell line iPS (IMR90)-4 was purchased from WiCell Research Institute (Madison, WI), and maintained with a feeder-free method according to the instruction from […] Technologies (Vancouver, BC, Canada). The protocol of differentiation towards iKCs and iHeps as described previously with slight modification ([Tasnim et al., 2019]; [Cai et al., 2012]), respectively. […] More details are provided in Supplementary Methods. After differentiation, iKCs was harvested using 0.05 % trypsin-EDTA (Gibco, Waltham, Massachusetts, USA), while iHeps were dissociated with TrypLE^TM (Gibco). iHep suspension was further filtered through a 40 µm cell strainer to remove extracellular matrix clumps. Cell suspension was centrifuged at 1000 rpm for 5 min. For co-culture set up, tissue culture plates were coated with Rat tail collagen I (Gibco) diluted 100-fold in 0.02 N acetic acid, and incubated at 37 °C for 1 h and washed 3 times with PBS. According to the protocol optimized by [Tasnim et al. (2019)], iKCs was firstly seeded at a density of 14,000 per well on 96-well plate with Advanced DMEM (plus supplements) containing 5 % FBS. On the following day, iHeps were added at a density of 35,000 per well in Williams’ Medium E (plus supplements) (iHep: iKCs ratio = 2.5: 1). This reflects the physiological ratio of these cells in vivo under inflammatory conditions ([Tasnim et al., 2021]). Fresh media containing drugs was applied to co-cultures the next day. 50,000 cells were seeded to establish iHeps monoculture. THP-1 cells were kindly obtained from Dr. Eliza Fong and cultured as described by [Zeng et al. (2015)]. Details provided in Supplementary Methods.
(§1) Stock solutions of drugs were prepared in dimethyl sulfoxide (DMSO) and dissolved in medium prior to use. […] For these two drugs, the highest DMSO concentration was 1 %. Supernatant was collected at 48 hr for measurement of cytokines, and remaining cells were subjected to viability assay prior to lysis for RNA extraction.
Enzyme-linked immunosorbent assay (ELISA) for measurement of cytokines: Interleukin-6 (IL-6), interleukin-10 (IL-10) and tumor necrosis factor alpha (TNFα) levels in the media were measured using the corresponding human-based ELISA kits (Abcam, Cambridge, United Kingdom) according to manufacturer’s instructions. The cytokine production from dosed cells was normalized with the viability value from the same well. The normalized cytokine level upon drug treatments was further presented as percentage of DMSO+LPS. […] This normalization approach has been used in previous studies (Rose et al. 2016).

[1] = AlamarBlue cell viability in HIVIL; conditions: human
Experimental: as §1

[2] = test system: HIVIL (iKCs co-cultured with iHeps); experiment: AlamarBlue cell viability in HIVIL
Experimental: as §1

[3] = Cammett et al. 2009, Mendes et al. 2014, cited from earlier work
[4] = FDA-labeling information; ref Chen et al. 2016; cited from earlier work

For `N[C@@H]1[C@H]2CN(c3nc4c(cc3F)c(=O)c(C(=O)O)cn4-c3ccc(F)cc3F)C[C@@H]12` [TVX, Trovafloxacin], the “effect on cytokine production” value (IL-6; high doses (>25 μM)) was “inhibitory effects”, the IL-6 induction (IL-6; low dose 3.125 μM and 6.25 μM) was 1.5 fold and the IC50 (IL-6; Homo sapiens, LPS, 48 hr) was 16.2 µM. For the same molecule, the IL-10 response (IL-10) was “dose-dependent IL-10 decrease”, the TNFα induction (TNFα) was 1.5 fold and the viability at 48 hr [1] was 63.4 ± 5%. For the same molecule, the IC50 ([2]; Homo sapiens, 48 h, read-out: IC50: viability) was 87.7 µM, the “viability profiles among iHeps, iKCs and HIVIL” value ([2]; comparison of mono-cultures and co-culture) was “similar” and the Cmax ([3]; ref in each cell: Ademisoye et al. 2018, Xu et al. 2008, Agabeyoglu and Incecayir 2009, Rojanasthien et al. 2007, Reunanen et al. 1992, Li et al. 2002, Hong-mei et al. 2013, Bareggi et al. 1987, Jiang et al. 2008) was 5 µM. For the same molecule, the Cmax ([3]; ref in each cell: Xu et al. 2008) was 5 µM and the DILIrank [4] was “most”.

From PMC13289212, “HIVIL: A human in vitro inflammatory liver model recapitulates immune-associated drug effects with high predictivity” (NAM journal, 2025)
